The text below walks through data of patent US4684629A, “3'-deamino-3'-hydroxy-4'-deoxy-4'-amino doxorubicin and related daunorubicin” (priority 1985, dated 1987).

In brackets after ≈: the same amount, converted by molar mass. Where two headings read alike, the source gives them in different places.

In one series the test system is P388 leukemia. The series is described as follows: antitumor activity against P388 ascitic leukemia in CDF-1 mice, treatment ip on day 1. It counts as in vivo. The conditions noted are these: for antitumor activity compared with the parent drugs: P 388 ascitic leukemia, CDF-1 mice, in words; for T/C % (median survival time: % over untreated controls) / Toxic deaths: ip on day 1; for Toxic deaths: autoptic findings on dead mice. The procedure: The primary screening "in vivo" was carried out in CDF-1 mice bearing P 388 ascitic leukemia (10^6 cells/mouse).
Antitumor activity against P388 leukemia, treatment ip on day 1
^a Median survival time: % over untreated controls
^b Evaluated on the basis of autoptic findings on dead mice.

For series [1], the system named is miocardial tissue (atrium, ventricle). The series is described as follows: cardiotoxicity in C3H/He mice bearing mammary carcinoma, semithin sections of miocardial tissue (light microscopy). In kind it is in vivo. As to conditions: for animals with cardiac lesions (atrial and ventricular level) / severity of the cardiac lesions: mouse, in vivo. The procedure:
(§1) The compound IB has been tested in comparison with Doxorubicin against advanced mammary carcinoma spontaneously arising in C3H/He mice. The compounds were administered iv once a week for four weeks.
(§2) ^1 Experiment was performed in C3H/He mice inoculated s.c. with 20
(§3) × 10^6 mammary carcinoma cells.
(§4) ^2 Treatment iv started when tumor was palpable (once week for four
^6 Evaluated on semithin section of miocardial tissue (by light

The subject of series [2] is advanced mammary carcinoma. The series is described as follows: activity and toxicity against advanced mammary carcinoma in C3H/He mice, iv once a week for four weeks. It counts as in vivo. As to conditions: for Toxic deaths: autoptic evaluation; for Tumor growth: evaluated once week after last treatment; for activity at the optimal dose: 6 mg/kg of Doxorubicin, 5.3 mg/kg of IB, in words. The procedure: as §1
Activity, toxicity and cardiotoxicity of IB against advanced mammary
as §2, §3, §4
^3 Evaluated once week after last treatment.
^5 Evaluated on the basis of autoptic

The next series relates to HeLa cells. The series is described as follows: colony inhibition test against HeLa cells (treatment for 24 hrs). The conditions noted are these: Homo sapiens. In kind it is cell-based.
Setting [3] is: 2.7 mg/kg iv once a week for four weeks.
The mark [4] stands for this setting: 3.8 mg/kg iv once a week for four weeks.
The mark [5] stands for this setting: 5.3 mg/kg iv once a week for four weeks.
Where [6] appears, read: 6 mg/kg iv once a week for four weeks.
The mark [7] stands for this setting: 7.5 mg/kg iv once a week for four weeks.

`COc1cccc2c1C(=O)c1c(O)c3c(c(O)c1C2=O)CC(O)(C(=O)CO)CC3OC1CC(O)C(N)C(C)O1` (centres unmarked) [IB, 3'-deamino-3'-hydroxy-4'-deoxy-4'-aminodoxorubicin]: the “antitumor activity compared with the parent drugs” value with P388 leukemia is reported as “more active than the parent drugs”. The “T/C % (median survival time: % over untreated controls)” value is reported as 220% in the series with P388 leukemia (dose 4.4 (ng/kg [sic])), 230% in the series with P388 leukemia (dose 6.6 (ng/kg [sic])), 310% with P388 leukemia (dose 10.0 (ng/kg [sic])) and 215% in the series on P388 leukemia (dose 15.0 (ng/kg [sic])). The Toxic deaths was 0/10 with P388 leukemia (dose 4.4 (ng/kg [sic])); 0/10 in the series with P388 leukemia (dose 6.6 (ng/kg [sic])); 0/10 in the series on P388 leukemia (dose 10.0 (ng/kg [sic])); 3/10 with P388 leukemia (dose 15.0 (ng/kg [sic])); 0/5 in series [2] (setting [3]); 0/5 in series [2] (setting [4]). Also, the “Toxic deaths” value in series [2] (setting [5]) is reported as 1/5. Moreover, the entries for the “Cardiotoxicity, Atrium, affected mice (%)” value (“Cardiotoxicity, Atrium … (%)” below) in series [1] (setting [3]), in series [1] (setting [4]) and in series [1] (setting [5]) were 25%, 20% and 40%, respectively. Moreover, the entries for the “Cardiotoxicity, Atrium, grade” value in series [1] (setting [3]), in series [1] (setting [4]) and in series [1] (setting [5]) were 0.1, 0.1 and 0.2, respectively. Further, the “Cardiotoxicity, Ventricle, affected mice (%)” value in series [1] (setting [3]) worked out at 0%; in series [1] (setting [4]), 60%; in series [1] (setting [5]), 80%. The “Cardiotoxicity, Ventricle, grade” value in series [1] (setting [3]) is listed as 0; in series [1] (setting [4]), 0.3; in series [1] (setting [5]), 0.4. In addition, in series [1] (in words), the “cardiotoxicity in comparison with Doxorubicin” value was “drastically reduced in comparison with Doxorubicin”. The “animals with cardiac lesions (atrial and ventricular level)” value in series [1] is listed as “lower percent of affected mice”. For the same compound, the “severity of the cardiac lesions” value in series [1] is recorded as “lower severity”. Also, the T/C % in series [2] (setting [3]) came to 98%; in series [2] (setting [4]), 129%; in series [2] (setting [5]), 148%. The Tumor growth in series [2] (setting [3]) is reported as 32; in series [2] (setting [4]) it was 34; in series [2] (setting [5]), 59. Besides, in series [2], the “activity at the optimal dose” value is on record as “the same for both compounds”.
As for `COc1cccc2c1C(=O)c1c(O)c3c(c(O)c1C2=O)CC(O)(C(C)=O)CC3OC1CC(O)C(N)C(C)O1` (centres unmarked) [IA, 3'-deamino-3'-hydroxy-4'-deoxy-4'-aminodaunorubicin], the “antitumor activity compared with the parent drugs” value in the series on P388 leukemia is recorded as “more active than the parent drugs”. Moreover, the “T/C % (median survival time: % over untreated controls)” value in the series on P388 leukemia (dose 10.0 (ng/kg [sic])) stood at 165%; in the series with P388 leukemia (dose 15.0 (ng/kg [sic])) it was 180%; with P388 leukemia (dose 22.5 (ng/kg [sic])), 200%. For the same compound, the Toxic deaths in the series on P388 leukemia (dose 10.0 (ng/kg [sic])), in the series with P388 leukemia (dose 15.0 (ng/kg [sic])) and in the series with P388 leukemia (dose 22.5 (ng/kg [sic])) was 0/10 throughout. Besides, in the series on HeLa cells (HeLa cells, treatment for 24 hrs, read-out: ID50 (the source's name)), the IC50 amounted to 7 ng/mL (≈ 0.0133 µM).
With `COc1cccc2c1C(=O)c1c(O)c3c(c(O)c1C2=O)C[C@@](O)(C(=O)CO)C[C@@H]3O[C@H]1C[C@H](N)[C@H](O)[C@H](C)O1` [Doxorubicin], in the series on P388 leukemia (dose 10.0 (ng/kg [sic])), the “T/C % (median survival time: % over untreated controls)” value stood at 225% and the Toxic deaths is reported as 0/10. Also, in series [1] (setting [6]), the “Cardiotoxicity, Atrium … (%)” value came to 100%; the “Cardiotoxicity, Atrium, grade” value is recorded as 1.6; the “Cardiotoxicity, Ventricle, affected mice (%)” value was found to be 100%; the “Cardiotoxicity, Ventricle, grade” value was 1.2. For the same compound, in series [1] (setting [7]), the “Cardiotoxicity, Atrium … (%)” value amounted to 100%; the “Cardiotoxicity, Atrium, grade” value was found to be 3.2; the “Cardiotoxicity, Ventricle, affected mice (%)” value was 100%; the “Cardiotoxicity, Ventricle, grade” value is given as 3.6. Further, in series [1], the “animals with cardiac lesions (atrial and ventricular level)” value is “all the animals”; the “severity of the cardiac lesions” value is recorded as “high”. Also, in series [2] (setting [6]), the T/C % is recorded as 138%, the “Toxic deaths” value is on record as 0/5 and the Tumor growth came to 65. Moreover, in series [2], the “activity at the optimal dose” value is on record as “the same for both compounds”. In addition, in series [2] (setting [7]), the T/C % worked out at 125%, the “Toxic deaths” value was 5/5 and the Tumor growth is recorded as 84.
For the compound `COc1cccc2c1C(=O)c1c(O)c3c(c(O)c1C2=O)C[C@@](O)(C(C)=O)C[C@@H]3O[C@H]1C[C@H](N)[C@H](O)[C@H](C)O1` [Daunorubicin], the “T/C % (median survival time: % over untreated controls)” value in the series with P388 leukemia (dose 2.9 (ng/kg [sic])), in the series with P388 leukemia (dose 4.4 (ng/kg [sic])) and in the series with P388 leukemia (dose 6.6 (ng/kg [sic])) was 170% throughout. For the same compound, the Toxic deaths was 0/10 in the series on P388 leukemia (dose 2.9 (ng/kg [sic])), 0/10 in the series on P388 leukemia (dose 4.4 (ng/kg [sic])) and 3/10 in the series on P388 leukemia (dose 6.6 (ng/kg [sic])). Further, in the series with HeLa cells (HeLa, 24 h, read-out: ID50), the IC50 was determined as 9 ng/mL (≈ 0.0171 µM).
